Here are results for 1 compound from patent US20200157638A1, “BIOMARKERS AND PATIENT SELECTION STRATEGIES” (SIERRA ONCOLOGY, INC., priority 2017, published 2020).

For one data set, the system named is A673. The data set is described as follows: In vitro growth inhibition of cancer cell lines by SRA737. The conditions noted are these: A673 rhabdomyosarcoma cell line; CDKN2A/CDKN2B and BRCA1, Rad50, Rad51D alterations; FIG. 4. The data set is classed as cell-based. The text has this:
(§1) In cancer cells, replication stress induced by oncogenes (e.g., MYC and RAS oncogenes) and/or loss of function in tumor suppressors (e.g., TP53) results in persistent DNA damage and genomic instability, a trigger of the DDR network. […] SK-BR-3 is a breast cancer cell line harboring a deleterious mutation is TP53 and amplification in c-MYC. HT-29 is a colorectal cancer (CRC) cell line harboring a deleterious mutation in the tumor suppressor gene, adenomatous polyposis coli (APC), an amplification in c-MYC, and an activation mutation in the oncogenes, BRAF and PIK3CA. DU-145 is metastatic prostate cancer cell line harboring a deleterious mutation in the tumor suppressors TP53 and RB1, an amplification in KRAS, and alterations of the DNA damage repair genes TP53B1, MLH1 and MSH3. A673 is a rhabdomyosarcoma cell line harboring genetic alterations in the tumor suppressor genes, CDKN2A and CDKN2B and genetic alterations in the DNA damage repair genes BRCA1, Rad50 and Rad51D. OVCAR-3 is an ovarian cancer cell line harboring a deleterious mutations in the tumor suppressors TP53 and RB1 and an amplification of CCNE1. […] The results of these in vitro experiments confirm that cancer cells with genetic alterations in tumor suppressor genes, oncogenes, and/or DNA damage repair genes are sensitive to inhibition of Chk1.

In another data set the test system is DU-145. The description is as above. The data set is classed as cell-based. Particulars: DU-145 metastatic prostate cancer cell line; TP53 and RB1 mutations, KRAS amplification; FIG. 4.
Excerpt: as §1

The subject of another data set is HT-29. The data set is described as above. The class given is cell-based. Particulars: HT-29 colorectal cancer cell line; APC mutation, c-MYC amplification, BRAF and PIK3CA activation; FIG. 4.
Excerpt: as §1

The subject of a further data set is OVCAR-3. The description is as above. The class given is cell-based. Particulars: OVCAR-3 ovarian cancer cell line; TP53 and RB1 mutations, CCNE1 amplification; FIG. 5.
Excerpt: as §1

The test system of another data set is OVCAR-5. The data set is described as above. The data set is classed as cell-based. Particulars: OVCAR-5 ovarian cancer cell line; KRAS activation, CCNE1 overexpression; FIG. 5.
Excerpt: as §1

Another data set deals with SK-BR-3. The data set is described as above. The data set is classed as cell-based. The conditions noted are these: SK-BR-3 breast cancer cell line; TP53 mutation, c-MYC amplification; FIG. 4.
Excerpt: as §1

The subject of data set [1] is OVCAR-3 xenograft. The data set is described as follows: OVCAR-3 xenograft model of HGSOC, SRA737 monotherapy (Example 2). The conditions noted are these: 100 mg/kg, 3 cycles, 5 days on and 2 days off; FIG. 6B. The class given is in vivo. An excerpt:
The OVCAR-3 tumor cell line was derived from a platinum insensitive patient and harbors an amplification of CCNE1 (encoding cyclin E) and mutation in TP53 (encoding p53), two genomic alterations described herein to contribute to Chk1 inhibitor sensitivity.

For data set [2], the system named is OVCAR-3 xenograft. The data set is described as follows: OVCAR-3 xenograft model, SRA737 versus Olaparib (Example 3). The data set is classed as in vivo, mouse. The conditions noted are these: 100 mg/kg.

With `N#Cc1cnc(Nc2cc(NCC3CNCCO3)c(C(F)(F)F)cn2)cn1` (stereo not drawn) [SRA737, 5-[[4-[[morpholin-2-yl]methylamino]-5-(trifluoromethyl)-2-pyridyl]amino]pyrazine-2-carbonitrile], the “sensitivity to Chk1 inhibition (growth inhibition)” value with A673, with DU-145, in the data set on HT-29, in the data set on OVCAR-3, in the data set on OVCAR-5 and with SK-BR-3 was “demonstrated sensitivity to Chk1 inhibition” throughout. Further, the “tolerability (body weight loss)” value in the data set with OVCAR-3 xenograft [1] is listed as “well tolerated as demonstrated by minimal body weight loss”. Further, the “tumor growth as compared to Olaparib” value in the data set with OVCAR-3 xenograft [2] (FIG. 7A) is listed as “significantly reduced tumor growth”. Also, in the data set on OVCAR-3 xenograft [2] (FIG. 7B), the body weight result is “not significantly altered”.
